Assays:
[1] = Antitumor activity against mouse ependymoblastoma cells allografted in […] mouse at 100 mg/kg, ip administered from day 1 to day 5 relative to control; type: functional; details: route intraperitoneal
[2] = Antitumor activity against mouse ependymoblastoma cells allografted in […] mouse at 200 mg/kg, ip administered from day 1 to day 5 relative to control; type: functional; details: route intraperitoneal
L1210 [3] = assay: Antitumor activity against mouse L1210 cells allografted in CDF1 mouse at 200 mg/kg, ip administered from day 1 to day 9 relative to control; type: functional; details: route intraperitoneal
[4] = Antitumor activity against mouse ependymoblastoma cells allografted in […] mouse at 50 mg/kg, ip administered from day 1 to day 5 relative to control; type: functional; details: route intraperitoneal
L1210 [5] = assay: Antitumor activity against mouse L1210 cells allografted in CDF1 mouse at 50 mg/kg, ip administered from day 1 to day 9 relative to control; type: functional; details: route intraperitoneal
Mus musculus = assay: Toxicity in […] mouse allografted with mouse ependymoblastoma cells at 400 mg/kg, ip administered from day 1 to day 5 relative to control; type: organism-based; parameters: dose 400 mg/kg, route intraperitoneal; details: in vivo
L1210 [6] = assay: Antitumor activity against mouse L1210 cells allografted in CDF1 mouse at 100 mg/kg, ip administered from day 1 to day 9 relative to control; type: functional; details: route intraperitoneal
[7] = Antitumor activity against mouse ependymoblastoma cells allografted in C57BL/6 mouse at 100 mg/kg, ip administered from day 1 to day 5 relative to control; type: functional; details: route intraperitoneal
L1210 [8] = assay: Antitumor activity against mouse L1210 cells allografted in CDF1 mouse at 66 mg/kg, ip administered from day 1 to day 9 relative to control; type: functional; details: route intraperitoneal
L1210 [9] = assay: Antitumor activity against mouse L1210 cells allografted in CDF1 mouse at 29 mg/kg, ip administered from day 1 to day 9 relative to control; type: functional; details: route intraperitoneal
[10] = Antitumor activity against mouse ependymoblastoma cells allografted in C57BL/6 mouse at 130 mg/kg, ip administered from day 1 to day 5 relative to control; type: functional; details: route intraperitoneal
L1210 [11] = assay: Antitumor activity against mouse L1210 cells allografted in CDF1 mouse at 44 mg/kg, ip administered from day 1 to day 9 relative to control; type: functional; details: route intraperitoneal

Row | Structure (SMILES) | T/C [1] [%] | T/C [2] [%] | T/C (L1210 [3]) [%] | T/C [4] [%] | T/C (L1210 [5]) [%] | Activity (Mus musculus) | T/C (L1210 [6]) [%] | T/C [7] [%] | T/C (L1210 [8]) [%] | T/C (L1210 [9]) [%] | T/C [10] [%] | T/C (L1210 [11]) [%]
1 | CN(N=O)C(=O)NC[C@H]1O[C@@](CO)(O[C@H]2O[C@H](CNC(=O)N(C)N=O)[C@@H](O)[C@H](O)[C@H]2O)[C@@H](O)[C@@H]1O | 97 | 148 | 137 | 111 | 107 | Toxic | 129 | – | – | – | – | –
2 | CC(=O)O[C@@H]1[C@@H](OC(C)=O)[C@@H](O[C@]2(CNC(=O)N(C)N=O)O[C@H](CNC(=O)N(C)N=O)[C@@H](OC(C)=O)[C@@H]2OC(C)=O)O[C@H](CNC(=O)N(C)N=O)[C@H]1OC(C)=O | – | – | 120 | – | 104 | – | 102 | – | – | – | – | –
3 | CN(N=O)C(=O)NC[C@H]1O[C@@](CNC(=O)N(C)N=O)(O[C@H]2O[C@H](CNC(=O)N(C)N=O)[C@@H](O)[C@H](O)[C@H]2O)[C@@H](O)[C@@H]1O | 120 | 133 | 137 | 97 | 110 | Non-toxic | 117 | – | – | – | – | –
4 | CN(N=O)C(=O)N[C@@H](C=O)[C@@H](O)[C@H](O)[C@H](O)CO [STREPTOZOCIN] | – | – | – | – | – | – | 107 | 144 | 109 | 117 | 127 | 137
5 | CC(=O)OC[C@@]1(O[C@H]2O[C@H](CNC(=O)N(C)N=O)[C@@H](OC(C)=O)[C@H](OC(C)=O)[C@H]2OC(C)=O)O[C@H](CNC(=O)N(C)N=O)[C@@H](OC(C)=O)[C@@H]1OC(C)=O | – | – | 119 | – | 109 | – | 105 | – | – | – | – | –
